Target: T1, Type-1 angiotensin II receptor (Oryctolagus cuniculus, UniProt P34976)
T1 sequence (P34976 whole entry): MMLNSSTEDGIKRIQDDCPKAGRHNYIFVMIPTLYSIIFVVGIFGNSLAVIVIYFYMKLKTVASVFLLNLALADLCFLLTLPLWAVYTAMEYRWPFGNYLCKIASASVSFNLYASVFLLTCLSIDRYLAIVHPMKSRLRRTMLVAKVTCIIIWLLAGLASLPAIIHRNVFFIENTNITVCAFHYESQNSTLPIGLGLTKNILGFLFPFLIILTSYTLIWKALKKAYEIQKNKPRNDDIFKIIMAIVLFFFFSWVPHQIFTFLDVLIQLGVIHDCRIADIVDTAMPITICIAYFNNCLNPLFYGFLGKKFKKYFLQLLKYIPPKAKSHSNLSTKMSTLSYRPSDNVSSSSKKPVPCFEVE
Assay: Antagonist activity at Oryctolagus cuniculus (rabbit) aortic AT1 receptor

| Compound | IC50 (read-out: pIC50 (converted)) [nM] | IC50 (read-out: IC50) [nM] |
| --- | --- | --- |
| CCCCNC(=O)c1ccc(Cl)c(-n2nc(CCCC)n(Cc3ccc(-c4ccccc4S(=O)(=O)NC(=O)OC(C)(C)C)cc3F)c2=O)c1 | 0.178 | – |
| CCCCC(=O)Nc1ccc(Cl)c(-n2nc(CCC)n(Cc3ccc(-c4ccccc4S(=O)(=O)NC(=O)c4cc(Cl)ccc4Cl)cc3F)c2=O)c1 | – | 0.19 |
